According to ChEMBL document CHEMBL1201862, “PubChem BioAssay data set” (2004):
Active and inactive are the calls of the source.

Assays:
[1] = target: T1, High affinity choline transporter 1 (Homo sapiens, UniProt Q9GZV3); assay: CHT inhibitors, dose response, cell-based, 5-point CRC, membrane potential dye (AID 504840); assay type: functional
T1 sequence (Q9GZV3 whole entry): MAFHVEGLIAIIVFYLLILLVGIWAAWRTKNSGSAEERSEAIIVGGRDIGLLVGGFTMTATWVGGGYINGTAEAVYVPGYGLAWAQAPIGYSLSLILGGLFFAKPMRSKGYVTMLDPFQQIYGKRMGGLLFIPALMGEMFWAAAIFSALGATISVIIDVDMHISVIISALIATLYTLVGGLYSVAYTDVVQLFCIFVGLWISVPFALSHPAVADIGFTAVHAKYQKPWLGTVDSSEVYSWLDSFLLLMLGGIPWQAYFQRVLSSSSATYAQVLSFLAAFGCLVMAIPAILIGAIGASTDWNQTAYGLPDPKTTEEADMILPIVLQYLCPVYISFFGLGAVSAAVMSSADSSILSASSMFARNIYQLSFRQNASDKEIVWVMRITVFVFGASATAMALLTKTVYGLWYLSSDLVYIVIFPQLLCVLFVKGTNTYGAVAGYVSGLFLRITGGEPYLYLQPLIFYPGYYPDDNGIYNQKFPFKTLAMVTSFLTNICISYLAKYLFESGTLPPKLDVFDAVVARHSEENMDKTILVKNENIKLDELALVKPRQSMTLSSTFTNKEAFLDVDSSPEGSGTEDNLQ

[2] = target: T2, Microphthalmia-associated transcription factor (Homo sapiens, UniProt O75030); assay: TRPM1 promoter luciferase signal decrease, dose response, MITF inhibitor project, cell-based, SK-MEL-5, cherry-picked, set 3 (AID 493073); assay type: functional
T2 sequence (O75030 whole entry): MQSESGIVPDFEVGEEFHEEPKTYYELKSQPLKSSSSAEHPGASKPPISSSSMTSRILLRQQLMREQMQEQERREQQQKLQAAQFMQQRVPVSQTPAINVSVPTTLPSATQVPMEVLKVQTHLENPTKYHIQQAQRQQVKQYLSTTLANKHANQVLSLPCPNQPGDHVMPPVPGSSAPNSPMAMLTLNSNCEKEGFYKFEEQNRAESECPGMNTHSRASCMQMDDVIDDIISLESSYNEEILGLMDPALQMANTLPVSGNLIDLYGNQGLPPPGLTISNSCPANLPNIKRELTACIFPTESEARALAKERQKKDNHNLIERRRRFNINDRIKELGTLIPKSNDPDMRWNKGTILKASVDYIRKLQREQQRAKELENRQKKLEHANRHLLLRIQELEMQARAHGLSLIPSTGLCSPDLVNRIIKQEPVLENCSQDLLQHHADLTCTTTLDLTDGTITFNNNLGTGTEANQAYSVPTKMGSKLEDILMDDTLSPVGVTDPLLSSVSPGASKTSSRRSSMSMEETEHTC

[3] = growth suppression of beta-catenin-knockout colon cells, dose response, cell-based, HCT116, human colon tumor (AID 1045); assay type: functional;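 further: HCT116 colon tumor cells with beta catenin knocked out; cells exposed to compound for 60 hours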
[4] = tested on: INS1; assay: beta cell apoptosis inhibitors, cytokine rescue, dose response, luminescence, retest (AID 449756); assay type: functional, cell-based; details: Rattus norvegicus;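 further: cell death triggered by IL-1 beta plus TNF-alpha plus IFN-gamma mixture; protective hits raise ATP signal compared with cytokine alone wells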
[5] = growth suppression of PTEN-null colon cells, dose response, cell-based, HCT116 PTEN knockout (AID 1047); assay type: functional;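 further: HCT116 colon tumor cells with PTEN knocked out; cells exposed to compound for 60 hours before readout; potency for loss of cell viability measured by luminescence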
[6] = inhibitors of intracellular T. cruzi replication, confirmation, NIH3T3 host cells, beta-gal luminescence (AID 2044); assay type: functional, cell-based;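 further: intracellular parasites grown in NIH/3T3 mouse fibroblasts as host cells; luminescent beta-galactosidase reporter signal from transgenic T. cruzi replicating inside host cells; inhibitors lower the luminescence signal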
[7] = cytotoxicity toward NIH3T3 fibroblasts, dose response, counter-screen, cell-based, ATP luminescence, mouse fibroblasts (AID 2010); assay type: functional;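 further: cells exposed to compound for about 90 hours before reading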
[8] = cells; assay type: functional, cell-based
[9] = THP-1 cell cytotoxicity, dose response, cytotoxicity control for non-replicating M. tuberculosis project (AID 489025); assay type: functional
[10] = tested on: Streptococcus sp. 'group A'; assay: growth inhibition of control SK(-) GAS strain, dose response, counter-screen for streptokinase expression inhibitor project, luminescence, kanamycin, BacTiterGlo, confirmation (AID 1900); assay type: functional, organism-based
[11] = Luminescence Cell-Based Dose Response HTS to Identify Inhibitors of 5'UTR Stem-Loop Driven Prion Protein mRNA Translation in H4 Neuroglioblastoma Cells. [Related pubchem assays: 1827 (Project Summary), 1813 (Primary HTS)]; assay type: functional
[12] = microbe, parasite or virus in culture; assay type: functional; details: Mycobacterium tuberculosis
[13] = HepG2 cell cytotoxicity, dose response, cytotoxicity control for non-replicating M. tuberculosis project (AID 489018); assay type: functional; details: Mycobacterium tuberculosis
[14] = cells; assay type: functional
[15] = target: T3, Streptokinase A (Streptococcus pyogenes serotype M1, UniProt P10520); assay: S. pyogenes streptokinase expression inhibitors, potency, dose response, plasminogen activation absorbance, OD405 (AID 1914); assay type: functional, Streptococcus pyogenes M1 GAS;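 further: secreted streptokinase activity via plasminogen activation per viability signal from cell pellet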
T3 sequence (P10520 whole entry): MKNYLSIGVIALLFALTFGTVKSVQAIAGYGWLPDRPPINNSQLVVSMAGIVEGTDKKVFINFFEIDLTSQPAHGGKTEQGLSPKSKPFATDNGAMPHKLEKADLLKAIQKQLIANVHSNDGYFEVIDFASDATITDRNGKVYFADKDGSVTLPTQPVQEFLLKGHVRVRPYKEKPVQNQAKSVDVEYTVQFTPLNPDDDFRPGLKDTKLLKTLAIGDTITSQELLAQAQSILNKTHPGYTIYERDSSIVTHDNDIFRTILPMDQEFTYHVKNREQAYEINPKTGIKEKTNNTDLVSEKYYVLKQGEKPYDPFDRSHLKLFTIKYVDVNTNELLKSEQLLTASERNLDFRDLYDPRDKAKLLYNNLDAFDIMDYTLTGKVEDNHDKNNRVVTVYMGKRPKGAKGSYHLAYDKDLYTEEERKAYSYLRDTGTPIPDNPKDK

[16] = inhibitors of SNCA 5'UTR-driven reporter translation, confirmation, H4 neuroglioma cells, luminescence (AID 1988); assay type: functional, cell-based
[17] = Vero E6 cell cytotoxicity, dose response, cytotoxicity control for non-replicating M. tuberculosis project, secondary assay (AID 492998); assay type: functional, VeroE6; details: Vero C1008
[18] = tested on: Streptococcus; assay: Group A Streptococcus viability loss, dose response, counter-screen for streptokinase expression inhibitor project, luminescence, BacTiterGlo (AID 1915); assay type: functional, organism-based;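 further: potency for reduction of bacterial viability or growth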
[19] = cells; assay type: functional, cell-based; remark: listed apart in the source
[20] = inhibitors of firefly luciferase expression or activity, dose response, H4 neuroglioma cells, luminescence (AID 1990); assay type: functional, cell-based
[21] = NIH:OVCAR-3 ovarian cancer cell cytotoxicity, dose response, PAX8 inhibitor project, plate reader, dry powder samples (AID 743044); assay type: functional, cell-based
[22] = target: Paired box protein Pax-8 (Homo sapiens, UniProt Q06710); assay: inhibitors of PAX8-driven TPO luciferase reporter, dose response, RMG-I cells, cherry-pick (AID 687027); assay type: functional, cell-based;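 further: luciferase reporter driven by Pax8 target thyroperoxidase promoter measured by SteadyGlo luminescence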
Paired box protein Pax-8, sequence (Q06710 whole entry): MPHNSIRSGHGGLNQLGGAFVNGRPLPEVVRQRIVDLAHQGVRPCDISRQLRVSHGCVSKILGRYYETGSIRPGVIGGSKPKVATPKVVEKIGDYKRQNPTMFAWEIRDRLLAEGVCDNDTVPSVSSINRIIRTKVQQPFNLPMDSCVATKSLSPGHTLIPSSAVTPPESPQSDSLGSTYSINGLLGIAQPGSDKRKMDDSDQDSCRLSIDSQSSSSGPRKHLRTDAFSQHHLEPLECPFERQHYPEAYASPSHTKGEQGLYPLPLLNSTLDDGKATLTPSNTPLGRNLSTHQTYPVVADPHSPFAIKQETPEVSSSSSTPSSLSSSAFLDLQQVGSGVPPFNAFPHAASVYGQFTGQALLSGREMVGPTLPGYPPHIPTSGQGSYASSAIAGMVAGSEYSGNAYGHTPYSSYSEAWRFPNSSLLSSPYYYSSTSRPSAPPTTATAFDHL

[23] = cytotoxicity in OVCAR8 ovarian cancer cells, dose response, PAX8 project, cell-based, plate reader, dry powder samples (AID 743197); assay type: functional; details: OVCAR-8
[24] = P. falciparum Dd2 growth inhibitors, dose response, SYBR Green, dry powder samples (AID 1159566); assay type: functional, cell-based;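 further: potency for growth inhibition with lower SYBR green DNA signal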
[25] = P. falciparum Dd2 growth inhibitors, dose response, SYBR Green, cherry-picked samples (AID 1159567); assay type: functional, cell-based
[26] = P. falciparum 3D7-ScDHODH growth inhibitors, dose response, SYBR Green, dry powder samples (AID 1159570); assay type: functional, cell-based;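 further: parasite growth measured after 72 hours of compound exposure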
[27] = P. falciparum ATP4 D1247Y mutant growth inhibitors, dose response, NITD609-resistant line, SYBR Green, dry powder (AID 1159571); assay type: functional, cell-based;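 further: parasites synchronized at ring stage by sorbitol before testing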

COc1ccc(C(=O)NC(C)c2nccs2)cc1OC1CCN(C(C)C)CC1 (stereo unspecified)
IC50 [1]: 12.9 µM (active)

Cn1c(SCC(=O)N/N=C/c2ccc([N+](=O)[O-])s2)nnc1-c1ccccc1
AC50 [2]: 4.28 µM (active) | EC50 [3]: 4.99 µM (active) | AC50 [4]: 3.5 µM (active) | EC50 [5]: 4.9 µM (active) | EC50 [6]: 0.634 µM (active) | EC50 [7]: 19.8 µM (active)

Cc1nnc(-c2ccccc2)c(=O)n1/N=C/c1c(O)ccc2ccccc12
EC50 [8]: 25.7 µM (active) | CC50 [9]: 3.63 µM (active) | EC50 [10]: 2.7 µM (active) | EC50 [11]: 9.49 µM (active) | CC50 [12]: 18.9 µM (active) | CC50 [13]: > 20 µM (active) | IC50 [14]: 35.3 µM (active) | EC50 [15]: > 150 µM (not active) | EC50 [16]: > 120 µM (not active) | CC50 [17]: 8.43 µM (active) | EC50 [18]: 36.2 µM (active) | EC50 [19]: > 350 µM (not active) | EC50 [20]: > 120 µM (not active) | EC50 [6]: 1.16 µM (active) | EC50 [7]: 1.97 µM (active)

Cc1nnsc1C(=O)N/N=C/c1ccc2ccccc2c1O
EC50 [8]: 6.43 µM (active) | CC50 [9]: < 0.078 µM (active) | AC50 [4]: 0.321 µM (active) | CC50 [13]: 1.51 µM (active) | IC50 [14]: > 50 µM (active) | CC50 [17]: 0.09 µM (active) | EC50 [19]: 35.8 µM (active)

CC(C)NC(=O)N(C)C[C@H]1OCCCC[C@@H](C)Oc2ccc(NC(=O)Nc3ccc(C(F)(F)F)cc3)cc2C(=O)N([C@@H](C)CO)C[C@H]1C
AC50 [21]: 32.7 µM (active) | AC50 [22]: 8.11 µM (active) | AC50 [23]: 48.9 µM (active)

C[C@H]1CCCCO[C@H](CN(C)S(=O)(=O)c2ccc(F)cc2)[C@@H](C)CN([C@@H](C)CO)C(=O)c2cc(NS(=O)(=O)c3ccc(Cl)cc3)ccc2O1
AC50 [21]: 49.2 µM (active) | AC50 [22]: 5.92 µM (active) | AC50 [23]: 60.6 µM (active)

COc1ccc(/C(C)=N/Nc2ncc(Cl)cc2Cl)c(O)c1
CC50 [9]: 24.9 µM (active) | CC50 [13]: 19.3 µM (active) | IC50 [14]: 2.19 µM (active) | CC50 [17]: > 20 µM (active)

CCc1cc(CC)c(/C=N/NC(N)=O)c(CC)c1/C=N/NC(N)=O
IC50 [1]: 11.1 µM (active)

Cc1ccc(S(=O)(=O)N(C)C[C@H]2OCc3ccccc3-c3c(n(C)c4ccccc34)C(=O)N([C@@H](C)CO)C[C@@H]2C)cc1
AC50 [24]: 0.818 µM (active) | AC50 [25]: 1.53 µM (active) | AC50 [26]: 1.21 µM (active) | AC50 [27]: 0.807 µM (active)

CCCc1cn(CC[C@@H]2CC[C@H](NS(=O)(=O)c3ccc(-c4ccccc4)cc3)[C@H](CO)O2)nn1
AC50 [24]: 0.332 µM (active) | AC50 [25]: 1.39 µM (active) | AC50 [26]: 0.916 µM (active) | AC50 [27]: 0.883 µM (active)

C[C@H]1CN([C@@H](C)CO)C(=O)c2c(c3ccccc3n2C)-c2ccccc2CO[C@@H]1CN(C)S(=O)(=O)c1ccc(F)cc1
AC50 [24]: 0.755 µM (active) | AC50 [25]: 1.89 µM (active) | AC50 [26]: 1.4 µM (active) | AC50 [27]: 1.15 µM (active)

O=C(C1CCCCC1)N1[C@H](CO)[C@@H](c2ccccc2)C12CN(Cc1cccc(Cl)c1)C2
AC50 [24]: 0.353 µM (active) | AC50 [25]: 1.43 µM (active) | AC50 [26]: 0.651 µM (active) | AC50 [27]: 0.606 µM (active)
